# Source: patent publication US20080176952A1, “Management of Ophthalmologic Disorders, Including Macular Degeneration” (priority 2004, published 2008)
# Test system: A2E accumulation
# Experiment: In vivo A2E accumulation in abcr knockout mice
# Details: 50 mg/kg once or twice a week, 2 to 2½ months
# Method: Effects on accumulation of A2E in abcr knockout mice by farnesyl decyl ketone and N-palmityl farnesimide were investigated. Mice were injected with 50 mg/kg drug in 25 microliters of DMSO or with only DMSO for the control group once or twice a week. After 2 to 2½ months, the mice were sacrificed, and A2E and iso-A2E were harvested and quantitated from 4 eyes for each drug or control.
SMILES,A2E accumulation,iso-A2E accumulation,total (A2E + iso-A2E) accumulation
CCCCCCCCCCCCCCCCNC(=O)C/C=C(\C)CC/C=C(\C)CCC=C(C)C [N-palmityl farnesimide],5.38 pmoles/eye,1.70 pmoles/eye,7.09 pmoles/eye
CCCCCCCCCCC(=O)CC=C(C)CCC=C(C)CCC=C(C)C [farnesyl decyl ketone],2.00 pmoles/eye,0.66 pmoles/eye,2.66 pmoles/eye

# Same assay, conditions: versus no drug
SMILES,reduction of A2E accumulation,reduction of iso-A2E accumulation,reduction of total A2E accumulation
CCCCCCCCCCCCCCCCNC(=O)C/C=C(\C)CC/C=C(\C)CCC=C(C)C [N-palmityl farnesimide],over 50%,about 33%,about 47%
CCCCCCCCCCC(=O)CC=C(C)CCC=C(C)CCC=C(C)C [farnesyl decyl ketone],over 80%,about 74%,about 80%

# Target: T1, RPE65 (Bos taurus, UniProt Q28175)
# T1 construct: Frozen bovine eyecups devoid of retinas were purchased from W. L. Lawson Co; tissue W. L. Lawson Co; host or cells: bovine eyecups (retinal pigment epithelium)
# Experiment: Fluorescence binding assay of retinoids and analogs to purified RPE65
# Parameters: species or system bovine
# Details: antagonist of RPE65; read-out: KD
# Method: Purification of mRPE65, sRPE65 and rHRPE65: Purification was performed as described before (Ma et al., 2001). The purities of these proteins were verified by silver staining or Coomassie staining and Western blot (1:4000 primary antibody-1 h at room temperature and 1:4000 secondary antibody-0.5 h at room temperature).
# Fluorescence binding assays: RPE65 in PBS, 1% CHAPS, pH 7.4 was used in the fluorometric titration studies. Protein concentrations were measured by a modified Lowry method (Lowry et al., 1951). All titrations were performed at 25° C. The samples in PBS buffer were excited at 280 nm and the fluorescence was scanned from 300 to 500 nm. Fluorescence measurements, using 450 μL quartz cuvettes with a 0.5 cm path length, were made at 25° C. on a Jobin Yvon Instruments, Fluoromax 2 employing the right-angle detection method.
# The fluorescence of the protein solution was measured after equilibrating it at 25° C. for 10 min. The sample was then titrated with a solution of retinoid dissolved in dimethyl sulfoxide. In each titration, to a 250 μL solution of the protein an equal amount of retinoid, typically 0.2 μL. was added and thoroughly mixed before allowing it to equilibrate for 10 min prior to recording the fluorescence intensity. […] The binding constant (KD) was calculated from the fluorescence intensity by using the following equation (Gollapalli et al., 2003).
# where P0=Total protein concentration,
# n=number of independent binding sites, R0=Total retixioid concentration at each addition, KD=dissociation constant, Fmax=Fluorescence intensity at saturation, and F0=Initial fluorescence intensity.
# T1 sequence (Q28175 whole entry): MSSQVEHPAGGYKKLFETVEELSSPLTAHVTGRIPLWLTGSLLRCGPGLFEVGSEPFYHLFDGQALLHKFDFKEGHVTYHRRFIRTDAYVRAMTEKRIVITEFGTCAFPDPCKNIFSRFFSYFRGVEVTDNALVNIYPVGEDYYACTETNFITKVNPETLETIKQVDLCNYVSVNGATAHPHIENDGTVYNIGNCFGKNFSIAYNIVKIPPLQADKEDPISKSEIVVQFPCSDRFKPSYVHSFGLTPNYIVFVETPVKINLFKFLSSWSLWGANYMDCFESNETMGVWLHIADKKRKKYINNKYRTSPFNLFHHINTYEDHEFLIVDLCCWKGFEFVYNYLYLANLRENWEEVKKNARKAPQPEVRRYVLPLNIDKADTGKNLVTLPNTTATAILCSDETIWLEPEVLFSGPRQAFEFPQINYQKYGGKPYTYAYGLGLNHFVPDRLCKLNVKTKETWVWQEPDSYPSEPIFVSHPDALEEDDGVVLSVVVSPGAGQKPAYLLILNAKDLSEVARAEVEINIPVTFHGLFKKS
row,SMILES,Kd
1,"CC1=C(/C=C/C(C)=C/C=C/C(C)=C/C(=O)N(C)C)C(C)(C)CCC1 [N,N-dimethyl retinimide]",3.58 µM
2,CC1=C(/C=C/C(C)=C/C=C/C(C)=C/C(=O)NC(C)(C)C)C(C)(C)CCC1 [N-tert-butyl retinimide],4.32 µM
3,CCCCCCCCCC(=O)CC/C=C(C)/C=C/C=C(C)/C=C/C1=C(C)CCCC1(C)C,0.173 µM
4,CCCCCCCCCCCCCCCC(=O)CC/C=C(\C)CC/C=C(\C)CCC=C(C)C,0.096 µM
5,CC(=O)CC/C=C(C)/C=C/C=C(C)/C=C/C1=C(C)CCCC1(C)C,3.79 µM
6,CCCCCCCCCCCCCCCCNC(=O)/C=C(C)/C=C/C=C(C)/C=C/C1=C(C)CCCC1(C)C [N-palmityl retinimide],0.04 µM
7,CCCCCCCCCCCCCCCC(=O)OC/C=C(\C)CC/C=C(\C)CCC=C(C)C [farnesyl palmitate],0.063 µM
8,CCCCCCCCCC(=O)CC/C=C(\C)CC/C=C(\C)CCC=C(C)C,0.056 µM
9,CCCCCCCCCCCCCCCC(=O)NC/C=C(\C)CC/C=C(\C)CCC=C(C)C,0.056 µM

# Continued, values first:
row,Kd,SMILES
1,0.195 µM,CCCCCCCCCCCCCCCCOC/C=C(\C)CC/C=C(\C)CC/C=C(\C)CCC=C(C)C [geranylgeranyl palmityl ether]
2,0.17 µM,CCCCCCCCCCCCCCCCC(O)/C=C(C)/C=C/C=C(C)/C=C/C1=C(C)CCCC1(C)C (stereo not shown) [palmityl retinyl alcohol]
3,0.156 µM,CCCCCCCCCCCCCCCCOC/C=C(C)/C=C/C1=C(C)CCCC1(C)C [β-ionoacetyl palmityl ether]
4,3.79 µM,CC(=O)/C=C(C)/C=C/C=C(C)/C=C/C1=C(C)CCCC1(C)C [methyl retinyl ketone]
5,0.213 µM,CCCCCCCCCCCCCCCC(=O)OC/C=C(\C)CC/C=C(\C)CC/C=C(\C)CCC=C(C)C [geranylgeranyl palmitate]
6,0.06 µM,CCCCCCCCCCCCCCCCOC/C=C(\C)CC/C=C(\C)CCC=C(C)C [farnesyl palmityl ether]
7,0.486 µM,COCCOCCOC/C=C(C)/C=C/C=C(C)/C=C/C1=C(C)CCCC1(C)C [retinyl [2-(2′-methoxy)ethoxy]ethyl ether]
8,0.151 µM,CCCCCCOC/C=C(C)/C=C/C=C(C)/C=C/C1=C(C)CCCC1(C)C [hexyl retinyl ether]
9,0.153 µM,CCCCCCCCCCCCCCCC(=O)OC/C=C(C)/C=C/C1=C(C)CCCC1(C)C [β-ionoacetyl palmitate]
10,0.301 µM,CCCCCCCCCCCCCCCC(=O)OC/C=C(\C)CCC=C(C)C [geranyl palmitate]
11,0.024 µM,COC/C=C(C)/C=C/C=C(C)/C=C/C1=C(C)CCCC1(C)C [methyl retinyl ether]
12,0.416 µM,CCCCCCCCCCCCCCCCOC/C=C(\C)CCC=C(C)C [geranyl palmityl ether]
13,0.064 µM,CCCCCCCCCCCCCCCCC(=O)/C=C(C)/C=C/C=C(C)/C=C/C1=C(C)CCCC1(C)C [palmityl retinyl ketone]
